Measurements reported in article PMC5161541 (Nuclear medicine and biology, 2016).
Like-named read-outs stand apart in the source and are kept apart here.

Experiments:
[1] = target: sites labeled by [125I]-E-IA-BF-PIPZE (σ1 receptors) (Mus musculus, UniProt O55242); assay type: binding
σ1 receptors [2] = target: T1, σ1 receptors (Mus musculus, UniProt O55242); settings: 100 μmol / kg, i.p.; cited from earlier work
σ1 receptors [3] = target: T1, σ1 receptors; experiment: In vivo specific binding and blocking by pretreatment with σ receptor ligands; settings: for adverse effects or abnormal behaviors: mice
σ1 receptors [4] = target: T1, σ1 receptors; experiment: Regional brain distribution with blocking pretreatments; assay type: in vivo, CD-1 mouse; settings: 2.5 μmol / kg i.v., 60 min, nine regions
[5] = target: vesicular acetylcholine transporter (VAChT); settings: read-out: apparent affinity for VAChT in vitro; cited from earlier work
σ1 receptors [6] = settings: cited from earlier work
cerebral σ1 receptors = settings: over 30 h, SPECT; cited from earlier work
σ1 receptors [7] = target: T1, σ1 receptors; experiment: Competition binding against [3H]-PTZ in mouse brain membranes; settings: read-out: Sigma-1 Ki; [3H]-PTZ, mouse brain membranes; mean ± SEM, n = 4
σ1 receptors [8] = target: T1, σ1 receptors; assay type: binding; settings: read-out: kinetically determined Kd (koff / kon); from rate constants
[9] = 0.1 nM [125I]-E-IA-BF-PIPZE, 37 °C, 180 min, means ± SEM (n = 3 – 6)
[10] = Cheng-Prusoff, 0.1 nM [125I]-E-IA-BF-PIPZE, means ± SEM (n = 3 – 6)

Chain of sites labeled by [125I]-E-IA-BF-PIPZE (σ1 receptors) (O55242 whole entry): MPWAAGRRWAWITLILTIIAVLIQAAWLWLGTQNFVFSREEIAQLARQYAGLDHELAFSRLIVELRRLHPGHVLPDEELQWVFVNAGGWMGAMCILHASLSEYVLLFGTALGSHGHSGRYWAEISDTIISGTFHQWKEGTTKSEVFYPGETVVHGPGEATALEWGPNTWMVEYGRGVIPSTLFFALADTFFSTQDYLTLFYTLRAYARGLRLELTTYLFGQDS
T1 sequence (O55242 whole entry): as above

CC(C)=CCN1CC[C@]2(C)c3cc(O)ccc3C[C@H]1[C@H]2C [(+)-Pentazocine, (+)-pentazocine]
Hill (nH) ([1]; means ± SEM (n = 3 – 6)): 0.9 ± 0.1

COC(=O)[C@H]1[C@@H](OC(=O)c2ccccc2)C[C@@H]2CC[C@H]1N2C [(−)-cocaine]
inhibition of [125I]-E-IA-DM-PE-PIPZE uptake (σ1 receptors [2]): 50%

CN1CCN(CCc2ccc(Cl)c(Cl)c2)CC1 [BD1063]
IC50 [1, 9]: 13.6 ± 0.7 nM
Ki [1, 10]: 9.6 ± 0.5 nM
Hill (nH) ([1]; means ± SEM (n = 3 – 6)): 1.3 ± 0.1
adverse effects or abnormal behaviors (σ1 receptors [3]; 2.5 μmol / kg i.v.): No adverse effects or abnormal behaviors
radioactivity in the blood after pretreatment (σ1 receptors [3]; 60 min, blocker 2.5 μmol / kg i.v.): 0.76 ± 0.04 %ID / g

COc1cc2c(cc1OC)CN(CCCCNC(=O)c1cc(Br)cc(OC)c1OC)CC2 [Br-Mach, reference compound]
IC50 [1, 9]: 9850 ± 807 nM
Ki [1, 10]: 6390 ± 524 nM
Hill (nH) ([1]; means ± SEM (n = 3 – 6)): 1.1 ± 0.2
decrease of radioligand uptake in brain (σ1 receptors [3]; 2.5 μmol / kg i.v., 60 min): 14%
decrease of radioligand uptake in heart (σ1 receptors [3]; 2.5 μmol / kg i.v., 60 min): 15%
decrease of radioligand uptake in muscle (σ1 receptors [3]; 2.5 μmol / kg i.v., 60 min): 24%
inhibition of radioligand uptake in spleen, kidney, lung or liver (σ1 receptors [3]; 2.5 μmol / kg i.v., 60 min): did not inhibit
adverse effects or abnormal behaviors (σ1 receptors [3]; 2.5 μmol / kg i.v.): No adverse effects or abnormal behaviors
reduction of radioligand uptake across brain regions (σ1 receptors [4]): minimal but statistically significant

Cc1ccccc1NC(=N)Nc1ccccc1C [DTG, ditolylguanidine]
IC50 [1]: 209 ± 14 nM
Ki [1]: 114 ± 7 nM
Hill (nH) ([1]; means ± SEM (n = 3 – 6)): 1.0 ± 0.1

COc1ccc(CCN2CCN(CCCc3ccccc3)CC2)cc1OC [SA4503, 1-[2-(3,4-dimethoxyphenyl)ethyl]-4-(3-phenylpropyl)piperazine]
Ki [5]: 50 nM

COc1ccc(CCN2CCN(CCCc3ccccc3)CC2)cc1 [YZ-067]
σ1 receptor affinity relative to SA4503 (σ1 receptors [6]): improved affinity

N#Cc1ccc(OCC2CCN(CC=CI)CC2)cc1 [[^123I]-TPCNE, [^123I]-1-(iodopropen-2-yl)-4-[(4-cyanophenoxy)methyl]piperidine]
Ki (σ1 receptors [6]; read-out: apparent affinity (Ki) for σ1 sites in vitro): 0.67 nM

N#Cc1ccc(OCC2CCN(CC=C[123I])CC2)cc1 [[^123I]-TPCNE, [^123I]-1-(iodopropen-2-yl)-4-[(4-cyanophenoxy)methyl]piperidine]
clearance from human brain (cerebral σ1 receptors): no clearance

I/C=C/CN1CCN(CCc2ccc3c(c2)CCO3)CC1 [[^125I]-E-IA-BF-PE-PIPZE, [^125I]-(E)-1-(2-(2,3-dihydrobenzofuran-5-yl)ethyl)-4-(iodoallyl)piperazine]
Ki (σ1 receptors [7]): 0.43 nM
Kd (σ1 receptors [8]): 0.042 nM
